Measured values: patent US10202361B2, “Pyridazinones as herbicides” (E I DU PONT DE NEMOURS AND COMPANY, priority 2014, dated 2019)

Experiments:
Type in all cases: in vivo
[1] = tested on: lambsquarters (Chenopodium album); assay: Test D pre-/postemergence controlled growth environment herbicide test; settings: scale 0 to 100
From the text: (§1) Seeds of plant species selected from bluegrass (annual bluegrass, Poa annua), blackgrass (Alopecurus myosuroides), canarygrass (Phalaris minor), chickweed (common chickweed, Stellaria media), galium (catchweed bedstraw, Galium aparine), downy bromegrass (Bromus tectorum), field poppy (Papaver rhoeas), field violet (Viola arvensis), foxtail, green (green foxtail, Setaria viridis), deadnettle (henbit deadnettle, Lamium amplexicaule), ryegrass, Italian (Italian ryegrass, Lolium multiflorum), kochia (Kochia scoparia), lambsquarters (Chenopodium album), oilseed rape (Brassica napus), pigweed (Amaranthus retroflexus), chamomile (scentless chamomile, Matricaria inodora), Russian thistle (Salsola kali), speedwell (bird's-eye speedwell, Veronica persica), barley, spring (spring barley, Hordeum vulgare), wheat, spring (spring wheat, Triticum aestivum), buckwheat, wild (wild buckwheat, Polygonum convolvulus), mustard, wild (wild mustard, Sinapis arvensis), oat, wild (wild oat, Avena fatua), radish, wild (wild radish, Raphanus raphanistrum), windgrass (Apera spica-venti), barley, winter (winter barley, Hordeum vulgare), and wheat, winter (winter wheat, Triticum aestivum) were planted into a silt loam soil and treated preemergence with test chemicals formulated in a non-phytotoxic solvent mixture which included a surfactant.
(§2) At the same time, these species were planted in pots containing Redi-Earth® planting medium (Scotts Company, 14111 Scottslawn Road, Marysville, Ohio 43041) comprising spaghnum peat moss, vermiculite, wetting agent and starter nutrients and treated with postemergence applications of the test chemicals formulated in the same manner. Plants ranged in height from 2 to 18 cm (1- to 4-leaf stage). Treated plants and controls were maintained in a controlled growth environment for 14 to 21 d after which time all species were compared to controls and visually evaluated. Plant response ratings, summarized in Table D, are based on a scale of 0 to 100 where 0 is no effect and 100 is complete control. A dash (-) response means no test result.

[2] = tested on: wheat, spring (spring wheat, Triticum aestivum); assay: as above; settings: scale 0 to 100
From the text: as §1, §2

[3] = tested on: crabgrass, Brazil (Brazilian crabgrass, Digitaria horizontalis); assay: Test E pre-/postemergence greenhouse herbicide test; settings: scale 0 to 100
Summary of the method: (§3)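 Visual control ratings on a 0 to 100 scale (100 = complete control) were made 14 to 21 d after treatment, relative to untreated controls. Test chemicals, formulated with surfactant in a non-phytotoxic solvent, were applied to seeded silt loam soil (preemergence) and to 2 to 18 cm plants (postemergence).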

[4] = tested on: waterhemp (common waterhemp, Amaranthus rudis); assay: as above; settings: scale 0 to 100
Summary of the method: as §3

[5] = tested on: field bindweed (Convolvulus arvensis); assay: as above; settings: scale 0 to 100
Summary of the method: as §3

[6] = tested on: foxtail, giant (giant foxtail, Setaria faberii); assay: as above; settings: Preemergence, scale 0 to 100
Summary of the method: as §3

[7] = tested on: sandbur (southern sandbur, Cenchrus echinatus); assay: as above; settings: scale 0 to 100
Summary of the method: as §3

[8] = tested on: dayflower, VA (Virginia dayflower, Commelina virginica); assay: as above; settings: scale 0 to 100
Summary of the method: as §3

[9] = tested on: arrowleaf sida (Sida rhombifolia); assay: as above; settings: scale 0 to 100
Summary of the method: as §3

Cc1cc(=O)n(-c2ccc(F)cc2)nc1Cc1ccnc(C(F)(F)F)c1 [Compound 1, 2-(4-fluorophenyl)-5-methyl-6-[[2-(trifluoromethyl)-4-pyridinyl]methyl]-3(2H)-pyridazinone]
Plant response rating ([1]; Postemergence, 31 g ai/ha): 20 | Plant response rating ([1]; Postemergence, 62 g ai/ha): 20 | Plant response rating ([1]; Postemergence, 125 g ai/ha): 40 | Plant response rating ([1]; Postemergence, 250 g ai/ha): 40 | Plant response rating ([1]; Postemergence, 500 g ai/ha): 45 | Plant response rating ([1]; Preemergence, 31 g ai/ha): 0 | Plant response rating ([1]; Preemergence, 62 g ai/ha): 0 | Plant response rating ([1]; Preemergence, 125 g ai/ha): 20 | Plant response rating ([1]; Preemergence, 250 g ai/ha): 90 | Plant response rating ([1]; Preemergence, 500 g ai/ha): 100 | Plant response rating ([2]; Postemergence, 31 g ai/ha): 0 | Plant response rating ([2]; Postemergence, 62 g ai/ha): 5 | Plant response rating ([2]; Postemergence, 125 g ai/ha): 5 | Plant response rating ([2]; Postemergence, 250 g ai/ha): 10 | Plant response rating ([2]; Postemergence, 500 g ai/ha): 10 | Plant response rating ([2]; Preemergence, 31 g ai/ha): 0 | Plant response rating ([2]; Preemergence, 62 g ai/ha): 0 | Plant response rating ([2]; Preemergence, 125 g ai/ha): 10 | Plant response rating ([2]; Preemergence, 250 g ai/ha): 15 | Plant response rating ([2]; Preemergence, 500 g ai/ha): 75

Cc1cc(=O)n(-c2ccc(C(F)(F)F)cc2)nc1Cc1ccnc(C(F)(F)F)c1 [Compound 2, 5-methyl-2-[4-(trifluoromethyl)phenyl]-6-[[2-(trifluoromethyl)-4-pyridinyl]methyl]-3(2H)-pyridazinone]
Plant response rating ([1]; Postemergence, 31 g ai/ha): 20 | Plant response rating ([1]; Postemergence, 62 g ai/ha): 20 | Plant response rating ([1]; Postemergence, 125 g ai/ha): 40 | Plant response rating ([1]; Postemergence, 250 g ai/ha): 80 | Plant response rating ([1]; Postemergence, 500 g ai/ha): 90 | Plant response rating ([1]; Preemergence, 31 g ai/ha): 20 | Plant response rating ([1]; Preemergence, 62 g ai/ha): 75 | Plant response rating ([1]; Preemergence, 125 g ai/ha): 75 | Plant response rating ([1]; Preemergence, 250 g ai/ha): 90 | Plant response rating ([1]; Preemergence, 500 g ai/ha): 90 | Plant response rating ([2]; Postemergence, 31 g ai/ha): 10 | Plant response rating ([2]; Postemergence, 62 g ai/ha): 10 | Plant response rating ([2]; Postemergence, 125 g ai/ha): 10 | Plant response rating ([2]; Postemergence, 250 g ai/ha): 15 | Plant response rating ([2]; Postemergence, 500 g ai/ha): 20 | Plant response rating ([2]; Preemergence, 31 g ai/ha): 0 | Plant response rating ([2]; Preemergence, 62 g ai/ha): 0 | Plant response rating ([2]; Preemergence, 125 g ai/ha): 15 | Plant response rating ([2]; Preemergence, 250 g ai/ha): 30 | Plant response rating ([2]; Preemergence, 500 g ai/ha): 50

Cc1cc(=O)n(-c2ccc(F)cc2)nc1Oc1ccnc(C(F)(F)F)c1 [Compound 14, 2-(4-fluorophenyl)-5-methyl-6-[[2-(trifluoromethyl)-4-pyridinyl]oxy]-3 (2H)-pyridazinone]
Plant response rating ([1]; Postemergence, 16 g ai/ha): 55 | Plant response rating ([1]; Postemergence, 31 g ai/ha): 60 | Plant response rating ([1]; Postemergence, 62 g ai/ha): 70 | Plant response rating ([1]; Postemergence, 125 g ai/ha): 80 | Plant response rating ([1]; Postemergence, 250 g ai/ha): 90 | Plant response rating ([1]; Preemergence, 16 g ai/ha): 5 | Plant response rating ([1]; Preemergence, 31 g ai/ha): 25 | Plant response rating ([1]; Preemergence, 62 g ai/ha): 20 | Plant response rating ([1]; Preemergence, 125 g ai/ha): 95 | Plant response rating ([1]; Preemergence, 250 g ai/ha): 95 | Plant response rating ([2]; Postemergence, 16 g ai/ha): 5 | Plant response rating ([2]; Postemergence, 31 g ai/ha): 10 | Plant response rating ([2]; Postemergence, 62 g ai/ha): 15 | Plant response rating ([2]; Postemergence, 125 g ai/ha): 15 | Plant response rating ([2]; Postemergence, 250 g ai/ha): 15 | Plant response rating ([2]; Preemergence, 16 g ai/ha): 0 | Plant response rating ([2]; Preemergence, 31 g ai/ha): 0 | Plant response rating ([2]; Preemergence, 62 g ai/ha): 0 | Plant response rating ([2]; Preemergence, 125 g ai/ha): 10 | Plant response rating ([2]; Preemergence, 250 g ai/ha): 15

COc1cc(=O)n(-c2ccc(C(F)(F)F)cc2)nc1Cc1ccnc(C(F)(F)F)c1 [Compound 16, 5-methoxy-2-[4-(trifluoromethyl)phenyl]-6-[[2-(trifluoromethyl)-4-pyridinyl]methyl]-3(2H)-pyridazinone]
Plant response rating: Crabgrass, Brazil ([3]; Postemergence, 62 g ai/ha): 20 | Plant response rating: Crabgrass, Brazil ([3]; Postemergence, 125 g ai/ha): 30 | Plant response rating: Crabgrass, Brazil ([3]; Postemergence, 250 g ai/ha): 50 | Plant response rating: Crabgrass, Brazil ([3]; Preemergence, 62 g ai/ha): 100 | Plant response rating: Crabgrass, Brazil ([3]; Preemergence, 125 g ai/ha): 100 | Plant response rating: Crabgrass, Brazil ([3]; Preemergence, 250 g ai/ha): 100 | Plant response rating: Waterhemp ([4]; Postemergence, 62 g ai/ha): 80 | Plant response rating: Waterhemp ([4]; Postemergence, 125 g ai/ha): 80 | Plant response rating: Waterhemp ([4]; Postemergence, 250 g ai/ha): 100 | Plant response rating: Waterhemp ([4]; Preemergence, 62 g ai/ha): 100 | Plant response rating: Waterhemp ([4]; Preemergence, 125 g ai/ha): 100 | Plant response rating: Waterhemp ([4]; Preemergence, 250 g ai/ha): 100 | Plant response rating: Field Bindweed ([5]; Postemergence, 62 g ai/ha): 50 | Plant response rating: Field Bindweed ([5]; Postemergence, 125 g ai/ha): 65 | Plant response rating: Field Bindweed ([5]; Postemergence, 250 g ai/ha): 75 | Plant response rating: Field Bindweed ([5]; Preemergence, 62 g ai/ha): 5 | Plant response rating: Field Bindweed ([5]; Preemergence, 125 g ai/ha): 30 | Plant response rating: Field Bindweed ([5]; Preemergence, 250 g ai/ha): 100 | Plant response rating: Foxtail, Giant ([6]; 62 g ai/ha): 75 | Plant response rating: Foxtail, Giant ([6]; 125 g ai/ha): 90 | Plant response rating: Foxtail, Giant ([6]; 250 g ai/ha): 100 | Plant response rating: Sandbur ([7]; Postemergence, 62 g ai/ha): 30 | Plant response rating: Sandbur ([7]; Postemergence, 125 g ai/ha): 35 | Plant response rating: Sandbur ([7]; Postemergence, 250 g ai/ha): 50 | Plant response rating: Sandbur ([7]; Preemergence, 62 g ai/ha): 40 | Plant response rating: Sandbur ([7]; Preemergence, 125 g ai/ha): 65 | Plant response rating: Sandbur ([7]; Preemergence, 250 g ai/ha): 80 | Plant response rating: Dayflower, VA ([8]; Postemergence, 62 g ai/ha): 20 | Plant response rating: Dayflower, VA ([8]; Postemergence, 125 g ai/ha): 60 | Plant response rating: Dayflower, VA ([8]; Postemergence, 250 g ai/ha): 70 | Plant response rating: Dayflower, VA ([8]; Preemergence, 62 g ai/ha): 5 | Plant response rating: Dayflower, VA ([8]; Preemergence, 125 g ai/ha): 20 | Plant response rating: Dayflower, VA ([8]; Preemergence, 250 g ai/ha): 65 | Plant response rating: Arrowleaf Sida ([9]; Postemergence, 62 g ai/ha): 60 | Plant response rating: Arrowleaf Sida ([9]; Postemergence, 250 g ai/ha): 80 | Plant response rating: Arrowleaf Sida ([9]; Preemergence, 62 g ai/ha): 0 | Plant response rating: Arrowleaf Sida ([9]; Preemergence, 125 g ai/ha): 0 | Plant response rating: Arrowleaf Sida ([9]; Preemergence, 250 g ai/ha): 5
